Where “and” joins values, the source holds several entries; their conditions need not be identical. Equal entries are not always repeated.

Data on 9 compounds can be found in US7459481B2, “Stimulation of CPT-1 as a means to reduce weight” (The Johns Hopkins University School of Medicine Licensing …, priority 2002, dated 2008).

One test addresses T1, CPT-1 (Homo sapiens, UniProt P50416).
T1 construct: endogenous in cells; host or cells: MCF-7 human breast cancer cells
T1 sequence (P50416 1-773): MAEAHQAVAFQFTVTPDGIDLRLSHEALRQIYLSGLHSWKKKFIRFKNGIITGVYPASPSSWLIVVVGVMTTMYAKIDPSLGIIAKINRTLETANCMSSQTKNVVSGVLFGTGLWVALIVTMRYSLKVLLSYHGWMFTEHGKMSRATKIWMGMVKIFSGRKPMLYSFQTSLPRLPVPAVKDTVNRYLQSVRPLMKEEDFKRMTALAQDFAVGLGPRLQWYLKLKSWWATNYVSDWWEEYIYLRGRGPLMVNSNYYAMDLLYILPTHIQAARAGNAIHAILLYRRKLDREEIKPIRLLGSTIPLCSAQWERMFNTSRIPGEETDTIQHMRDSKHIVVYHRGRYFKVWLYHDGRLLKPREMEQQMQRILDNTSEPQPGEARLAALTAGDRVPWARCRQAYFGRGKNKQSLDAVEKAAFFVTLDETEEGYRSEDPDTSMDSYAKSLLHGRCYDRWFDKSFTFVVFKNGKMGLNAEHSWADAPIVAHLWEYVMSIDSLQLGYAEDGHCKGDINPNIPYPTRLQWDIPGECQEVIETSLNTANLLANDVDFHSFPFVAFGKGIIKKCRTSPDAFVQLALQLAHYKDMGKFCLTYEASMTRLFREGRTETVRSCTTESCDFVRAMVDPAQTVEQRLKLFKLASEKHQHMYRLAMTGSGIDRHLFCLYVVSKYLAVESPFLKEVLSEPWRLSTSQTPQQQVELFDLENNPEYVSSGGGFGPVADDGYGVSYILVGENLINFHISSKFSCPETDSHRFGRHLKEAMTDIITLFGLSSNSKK
Put plainly: CPT-1 activity assay in MCF-7 cells. It is filed as cell-based. To be noted: for CPT-1 activity, % of control: FIG. 4; for CPT-1 Stimulation (% Control): cells preincubated 2 hours. Here is the method:
CPT-1 activity was assayed in MCF-7 cells by the following published procedure: MCF-7 cells were plated in DMEM with 10% fetal bovine serum at 10^6 cells in 24-well plates in triplicate. Following overnight incubation at 37° C., the medium was removed and replaced with 700 μl of assay medium consisting of: 50 mM imidazole, 70 mM KCl, 80 mM sucrose, 1 mM EGTA, 2 mM MgCl2, 1 mM DTT, 1 mM KCN, 1 mM ATP, 0.1% fatty acid free bovine serum albumin, 70 μM palmitoyl-CoA, 0.25 μCi [methyl-^14C]L-carnitine, 40 μg digitonin with or without 20 μM malonyl-CoA. After incubation for 6 minutes at 37° C., the reaction was stopped by the addition of 500 μl of ice-cold 4 M perchloric acid. Cells were then harvested and centrifuged at 13,000×g for 5 min. The pellet was washed with 500 μl ice cold 2 mM perchloric acid and centrifuged again. The resulting pellet was resuspended in 800 μl dH2O and extracted with 150 μl of butanol. The butanol phase was counted by liquid scintillation and represents the acylcarnitine derivative.
MCF-7 cells were treated with C75 at 10 or 20 μg/mL for 1 hr before CPT-1 activity was assayed. The assay was performed with the C75 and malonyl-CoA concentrations indicated (“M” indicates malonyl-CoA at 20 uM). Malonyl-CoA treatment alone caused a 46% reduction in CPT-1 activity similar to the previous experiment (see FIG. 2; p=0.02, two-tailed t-test, Prism 3.0). The level of malonyl-CoA inhibition of the CPT-1 activity is consistent with the activity of the liver isoform of CPT-1 in MCF-7 cells. The Ki of malonyl-CoA for the liver isoform of CPT-1 is ˜7 μM while the Ki for the muscle isoform of CPT-1 is 0.07 μM. Thus, MCF-7 cells express predominantly the liver isoform of CPT-1 (consistent with the immunoblot analysis).
(§1) FAS activity was measured by monitoring the malonyl-CoA dependent oxidation of NADPH spectrophotometrically at OD340 in 96-well plates, as described in International Patent Publication WO 2004/005277. The IC50 for the compounds against FAS was determined by plotting the change in OD340 against time for each inhibitor concentration tested and determining the rate of change by linear regression. The concentration of a particular compound yielding 50% inhibition of the rate for FAS in the absence of the compound is the IC50. Stimulation of CPT-1 activity was measured as described in Example 2, except the cells were preincubated with the compound for 2 hours at the concentrations indicated in the table. Stimulation of Fatty acid oxidation was determined as described in Example 1 for cells preincubated with the compounds at the concentrations indicated in the table.

Another test deals with T2, liver isoform of CPT-1 (Homo sapiens, UniProt P50416).
T2 sequence (P50416 1-773): T1 sequence (P50416 1-773)
To be noted: cited from earlier work.

The target of a further test is T3, muscle isoform of CPT-1 (Homo sapiens, UniProt Q92523).
T3 sequence (Q92523 1-772): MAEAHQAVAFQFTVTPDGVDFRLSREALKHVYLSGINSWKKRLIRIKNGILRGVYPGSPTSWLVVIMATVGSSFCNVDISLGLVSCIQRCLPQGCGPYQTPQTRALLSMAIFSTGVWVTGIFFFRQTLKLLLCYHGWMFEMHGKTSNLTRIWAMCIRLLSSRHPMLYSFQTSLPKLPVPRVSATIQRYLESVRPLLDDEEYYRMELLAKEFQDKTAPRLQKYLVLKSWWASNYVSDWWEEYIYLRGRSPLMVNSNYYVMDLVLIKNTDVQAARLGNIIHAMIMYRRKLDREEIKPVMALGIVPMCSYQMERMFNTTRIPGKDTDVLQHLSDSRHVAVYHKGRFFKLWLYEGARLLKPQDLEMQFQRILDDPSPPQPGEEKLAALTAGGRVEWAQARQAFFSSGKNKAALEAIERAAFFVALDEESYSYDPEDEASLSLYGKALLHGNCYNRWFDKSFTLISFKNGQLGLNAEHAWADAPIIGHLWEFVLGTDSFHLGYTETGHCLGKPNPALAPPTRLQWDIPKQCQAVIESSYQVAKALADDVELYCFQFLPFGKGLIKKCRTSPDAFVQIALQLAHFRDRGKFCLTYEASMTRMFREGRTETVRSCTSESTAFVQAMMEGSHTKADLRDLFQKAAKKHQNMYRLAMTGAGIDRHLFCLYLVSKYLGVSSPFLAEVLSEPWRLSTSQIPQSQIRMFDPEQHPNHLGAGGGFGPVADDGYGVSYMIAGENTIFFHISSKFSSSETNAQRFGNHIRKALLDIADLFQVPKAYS
The following applies: cited from earlier work.

The subject of test [1] is MCF-7 cells. The experiment in a line: Fatty acid oxidation ([1-14C]palmitate to 14CO2) in MCF-7 cells. It is filed as cell-based, human. Here is the method:
Human breast cancer cell line MCF-7 was obtained from the American Type Culture Collection. 1×10^6 MCF-7 cells were plated in T-25 flasks in triplicate and incubated overnight at 37° C. Drugs were then added as indicated diluted from 5 mg/ml stock in DMSO. After 2 hours, medium with drugs was removed and cells were preincubated for 30 min. with 1.5 ml of the following buffer: 114 mM NaCl, 4.7 mM KCl, 1.2 mM KH2PO4, 1.2 mM MgSO4, glucose 11 mM. After preincubation, 200 μl of assay buffer was added containing: 114 mM NaCl, 4.7 mM KCl, 1.2 mM KH2PO4, 1.2 mM MgSO4, glucose 11 mM, 2.5 mM palmitate (containing with 10 μCi of [1-^14C]palmitate) bound to albumin, 0.8 mM L-carnitine, and cells were incubated at 37° C. for 2 h. Following the incubation, 400 μl of benzethonium hydrochloride was added to the center well to collect released ^14CO2. Immediately, the reaction was stopped by adding 500 μl of 7% perchloric acid to the cells. The flasks with wells were then incubated for 2 h at 37° C. after which the benzothonium hydrochloride was removed and counted for ^14C. Blanks were prepared by adding 500 μl of 7% perchloric acid to the cells prior to the incubation with the assay buffer for 2 h.
as §1

For a further test, the target named is FAS (Homo sapiens, UniProt P49327). The experiment in a line: FAS activity, malonyl-CoA dependent oxidation of NADPH at OD340. It is filed as biochemical. To be noted: read-out: FAS Inhibition (IC50) (converted). Here is the method: as §1
Chain of FAS (P49327 whole entry): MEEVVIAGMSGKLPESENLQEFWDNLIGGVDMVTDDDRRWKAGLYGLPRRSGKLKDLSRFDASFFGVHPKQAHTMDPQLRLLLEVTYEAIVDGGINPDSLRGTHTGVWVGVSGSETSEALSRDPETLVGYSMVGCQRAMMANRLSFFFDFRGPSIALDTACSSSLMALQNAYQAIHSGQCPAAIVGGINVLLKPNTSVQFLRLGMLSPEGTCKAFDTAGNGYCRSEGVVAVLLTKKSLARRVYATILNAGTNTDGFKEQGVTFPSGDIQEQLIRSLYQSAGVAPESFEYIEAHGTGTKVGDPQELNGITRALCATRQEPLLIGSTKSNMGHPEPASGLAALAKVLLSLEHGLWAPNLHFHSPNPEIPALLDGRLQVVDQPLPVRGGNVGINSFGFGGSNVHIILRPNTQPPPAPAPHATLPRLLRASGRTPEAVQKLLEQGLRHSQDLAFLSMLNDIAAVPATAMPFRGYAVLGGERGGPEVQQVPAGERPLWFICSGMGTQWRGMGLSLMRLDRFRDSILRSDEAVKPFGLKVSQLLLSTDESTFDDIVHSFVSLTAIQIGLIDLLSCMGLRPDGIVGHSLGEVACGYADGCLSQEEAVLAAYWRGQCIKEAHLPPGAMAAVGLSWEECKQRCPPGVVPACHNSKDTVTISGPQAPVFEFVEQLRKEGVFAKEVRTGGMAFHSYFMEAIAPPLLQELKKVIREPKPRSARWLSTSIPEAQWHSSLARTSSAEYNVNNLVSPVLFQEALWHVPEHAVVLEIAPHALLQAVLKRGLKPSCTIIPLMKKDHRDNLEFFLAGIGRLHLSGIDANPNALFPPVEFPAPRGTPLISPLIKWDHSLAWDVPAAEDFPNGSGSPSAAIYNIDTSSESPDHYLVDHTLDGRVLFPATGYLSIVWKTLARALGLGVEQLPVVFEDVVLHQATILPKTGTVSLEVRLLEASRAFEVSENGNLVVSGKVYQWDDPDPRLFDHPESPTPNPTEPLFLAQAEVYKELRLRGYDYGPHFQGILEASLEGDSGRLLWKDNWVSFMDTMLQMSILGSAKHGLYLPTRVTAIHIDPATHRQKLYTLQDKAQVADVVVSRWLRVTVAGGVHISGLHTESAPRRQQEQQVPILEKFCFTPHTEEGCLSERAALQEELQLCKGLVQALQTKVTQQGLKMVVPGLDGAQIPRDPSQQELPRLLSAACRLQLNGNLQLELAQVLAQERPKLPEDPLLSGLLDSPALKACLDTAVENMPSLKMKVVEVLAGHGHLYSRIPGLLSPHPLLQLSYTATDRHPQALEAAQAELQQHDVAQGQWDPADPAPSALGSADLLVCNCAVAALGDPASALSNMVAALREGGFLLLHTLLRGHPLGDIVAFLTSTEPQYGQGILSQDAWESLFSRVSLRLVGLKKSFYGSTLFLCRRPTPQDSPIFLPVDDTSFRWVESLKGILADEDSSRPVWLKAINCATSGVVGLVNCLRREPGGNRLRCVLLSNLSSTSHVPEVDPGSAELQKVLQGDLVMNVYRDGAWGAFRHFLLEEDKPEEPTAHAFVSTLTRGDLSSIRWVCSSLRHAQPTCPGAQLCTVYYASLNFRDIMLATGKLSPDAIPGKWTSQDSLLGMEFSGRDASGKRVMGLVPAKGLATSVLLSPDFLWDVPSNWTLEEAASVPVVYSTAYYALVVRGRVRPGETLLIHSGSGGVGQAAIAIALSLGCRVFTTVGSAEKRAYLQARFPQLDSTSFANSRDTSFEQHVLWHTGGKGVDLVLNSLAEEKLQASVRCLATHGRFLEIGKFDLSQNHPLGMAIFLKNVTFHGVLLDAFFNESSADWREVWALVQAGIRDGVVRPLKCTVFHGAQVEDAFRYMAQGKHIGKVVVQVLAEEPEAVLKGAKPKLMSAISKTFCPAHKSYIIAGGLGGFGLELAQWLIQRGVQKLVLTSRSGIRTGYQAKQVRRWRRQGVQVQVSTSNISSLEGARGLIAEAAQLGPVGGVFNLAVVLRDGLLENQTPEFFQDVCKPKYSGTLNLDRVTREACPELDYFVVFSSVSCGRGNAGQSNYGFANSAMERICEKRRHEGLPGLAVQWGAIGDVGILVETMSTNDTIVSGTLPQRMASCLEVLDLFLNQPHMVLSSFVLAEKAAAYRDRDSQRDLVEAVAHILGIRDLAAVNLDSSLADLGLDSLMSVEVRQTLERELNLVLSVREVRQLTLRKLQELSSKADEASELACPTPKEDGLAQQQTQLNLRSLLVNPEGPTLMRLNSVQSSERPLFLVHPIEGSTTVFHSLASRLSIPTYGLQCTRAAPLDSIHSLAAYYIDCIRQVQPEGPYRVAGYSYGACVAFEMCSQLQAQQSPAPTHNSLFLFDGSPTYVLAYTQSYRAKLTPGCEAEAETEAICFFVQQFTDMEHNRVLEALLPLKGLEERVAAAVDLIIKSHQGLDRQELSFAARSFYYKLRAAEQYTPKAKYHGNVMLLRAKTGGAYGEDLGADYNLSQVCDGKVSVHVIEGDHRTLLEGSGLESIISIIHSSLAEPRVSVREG
Test [2] relates to MCF-7 cells. To be noted: literature; cited from earlier work.
Test [3] concerns MCF-7 cells. To be noted: cited from earlier work.
The mark [4] stands for this setting: MCF-7, 20 μg/ml 1 hr before assay.

On to `C=C1C(=O)OC(CCCCCCCCCCCCCCCC)C1C(=O)O` (centres unmarked) [Compound C16], for which the “CPT-1 activity, % of control” value at CPT-1 (setting [4]) was 138 % of control.
What is called Ki is the dissociation constant of the complex between target and ligand, obtained from inhibition or displacement. As to `CC(C)(COP(=O)(O)OP(=O)(O)OC[C@H]1O[C@@H](n2cnc3c(N)ncnc32)[C@H](O)[C@@H]1OP(=O)(O)O)[C@@H](O)C(=O)NCCC(=O)NCCSC(=O)CC(=O)O` [Malonyl-CoA, reference compound], on CPT-1 (MCF-7, 20 μM in reaction buffer), the “CPT-1 activity, % of control” value is on record as 64 % of control. For the same compound, the “reduction (inhibition) of CPT-1 activity” value at CPT-1 (malonyl-CoA alone at 20 μM in the assay, MCF-7) is 46% and ~70%. Moreover, the results for the Ki at liver isoform of CPT-1 and on muscle isoform of CPT-1 were roughly 7 µM and 0.07 µM, respectively.
The IC50 is the concentration needed to halve the response being measured. With `C=CCNC(=O)[C@@H]1C(=C)C(=O)O[C@H]1CCCCCCCC` (racemic), in the test on MCF-7 cells [1] (0.625 μg/mL), the “Fatty Acid Oxidation (% Control)” value stood at 400 % Control. For the same compound, the “CPT-1 Stimulation (% Control)” value on CPT-1 (10 μg/mL) is listed as 400 % Control. In addition, the concentration for half-maximal inhibition (IC50) on FAS was 163 µM.
For `C=CCC1(CC=C)C(=O)S[C@@](C)(CCCCCCCC)C1=O` (racemic), in the test with MCF-7 cells [1] (10 μg/mL), the “Fatty Acid Oxidation (% Control)” value was 175 % Control. In addition, the “CPT-1 Stimulation (% Control)” value on CPT-1 (20 μg/mL) amounted to 175 % Control.
In the case of `C=C1C(=O)O[C@@H](CCCCCCCC)[C@@H]1C(=O)NCC(=O)O` (racemic), in the test on MCF-7 cells [1] (40 μg/mL), the “Fatty Acid Oxidation (% Control)” value stood at 500 % Control. The “CPT-1 Stimulation (% Control)” value on CPT-1 (80 μg/mL) came to 500 % Control. At FAS, the IC50 is 167 µM.
Consider `CCOC(=O)[C@@]1(CCCCCCOc2ccc(Cl)cc2)CO1` [Etomoxir, reference compound], for which, in the test with MCF-7 cells [1] (MCF-7, FIG. 1), the “fatty acid oxidation, % of control” value is 32 % of control.
As to `C/C=C/C/C=C/CCC(=O)[C@H]1O[C@H]1C(N)=O` [Cerulenin, reference compound], the “effect on fatty acid oxidation” value with MCF-7 cells [2] is reported as “inhibition of fatty acid oxidation”. The “effect on malonyl-CoA amount” value with MCF-7 cells [3] is given as “increases”.
With `CCCCCCCC[C@]1(C)SC(=O)C=C1OC(=O)OCC` (racemic), in the test on MCF-7 cells [1] (10 μg/mL), the “Fatty Acid Oxidation (% Control)” value amounted to 140 % Control. Also, the “CPT-1 Stimulation (% Control)” value on CPT-1 (20 μg/mL) is on record as 150 % Control. For the same compound, the IC50 at FAS is 14.6 µM.
As to `C=C1C(=O)OC(CCCCCCCCCCCC)C1C(=O)O` (centres unmarked) [Compound C12], the “CPT-1 activity, % of control” value at CPT-1 (setting [4]) was 186 % of control.
